According to US11691980B2, “Liphagal analog and multi-targeted kinase inhibitor containing liphagal or analog thereof” (TOHOKU UNIVERSITY, priority 2017, dated 2023):

Tests used:
Type in all cases: biochemical
[1] = target: T1, SPHK2 (Homo sapiens, UniProt Q9NRA0); experiment: mobility shift assay
T1 construct: purchased Carna Biosciences

[2] = target: T2, CHK1 (Homo sapiens, UniProt O14757); experiment: mobility shift assay
T2 construct: purchased Carna Biosciences

[3] = target: T3, HPK1 (Homo sapiens, UniProt Q86Z02); experiment: mobility shift assay
T3 construct: purchased Carna Biosciences

[4] = target: T4, JNK1 (Homo sapiens, UniProt P45983); experiment: mobility shift assay
T4 construct: purchased Carna Biosciences

[5] = target: T5, SGK3 (Homo sapiens, UniProt Q96BR1); experiment: mobility shift assay
T5 construct: purchased Carna Biosciences

[6] = target: T6, PLK1 (Homo sapiens, UniProt P53350); experiment: mobility shift assay
T6 construct: purchased Carna Biosciences
T6 sequence (P53350 whole entry): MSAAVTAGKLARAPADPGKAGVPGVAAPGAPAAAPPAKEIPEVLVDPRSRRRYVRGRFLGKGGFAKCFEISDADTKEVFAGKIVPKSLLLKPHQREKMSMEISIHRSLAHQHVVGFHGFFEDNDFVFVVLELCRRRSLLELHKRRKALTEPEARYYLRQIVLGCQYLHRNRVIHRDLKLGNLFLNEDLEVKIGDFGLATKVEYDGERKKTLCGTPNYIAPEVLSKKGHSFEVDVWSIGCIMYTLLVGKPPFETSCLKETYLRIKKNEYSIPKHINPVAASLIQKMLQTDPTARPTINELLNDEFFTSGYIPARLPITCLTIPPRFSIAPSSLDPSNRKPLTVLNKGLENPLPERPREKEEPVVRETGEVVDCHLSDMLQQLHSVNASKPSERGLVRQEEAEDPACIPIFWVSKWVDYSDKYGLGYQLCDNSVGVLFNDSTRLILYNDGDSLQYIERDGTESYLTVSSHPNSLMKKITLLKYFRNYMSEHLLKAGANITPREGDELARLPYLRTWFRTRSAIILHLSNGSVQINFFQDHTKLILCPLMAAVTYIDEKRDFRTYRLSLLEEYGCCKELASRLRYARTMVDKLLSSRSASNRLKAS

[7] = target: T7, BRAF_Cascade (Homo sapiens, UniProt P15056); experiment: mobility shift assay
T7 construct: purchased Carna Biosciences
T7 sequence (P15056 whole entry): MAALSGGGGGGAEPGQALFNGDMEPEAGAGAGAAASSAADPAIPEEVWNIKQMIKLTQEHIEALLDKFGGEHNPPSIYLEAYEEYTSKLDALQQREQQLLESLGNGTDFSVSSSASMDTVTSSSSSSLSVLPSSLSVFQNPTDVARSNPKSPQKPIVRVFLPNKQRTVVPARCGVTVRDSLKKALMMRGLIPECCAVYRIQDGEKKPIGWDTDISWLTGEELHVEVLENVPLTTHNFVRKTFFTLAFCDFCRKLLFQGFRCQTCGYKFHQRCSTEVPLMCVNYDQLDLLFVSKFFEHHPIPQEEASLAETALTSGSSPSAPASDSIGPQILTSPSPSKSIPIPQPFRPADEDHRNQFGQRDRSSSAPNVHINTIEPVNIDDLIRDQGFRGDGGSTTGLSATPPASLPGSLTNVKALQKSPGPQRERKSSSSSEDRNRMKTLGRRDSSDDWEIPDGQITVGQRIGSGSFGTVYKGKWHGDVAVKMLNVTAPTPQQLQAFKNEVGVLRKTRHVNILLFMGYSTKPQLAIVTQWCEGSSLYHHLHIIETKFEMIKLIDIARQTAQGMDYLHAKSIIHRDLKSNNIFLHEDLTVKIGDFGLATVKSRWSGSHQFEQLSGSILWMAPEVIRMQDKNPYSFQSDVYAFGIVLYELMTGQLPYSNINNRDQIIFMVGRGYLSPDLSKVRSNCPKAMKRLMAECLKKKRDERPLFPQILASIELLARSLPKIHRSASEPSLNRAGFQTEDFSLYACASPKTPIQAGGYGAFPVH

[8] = target: T8, EPHB1 (Homo sapiens, UniProt P54762); experiment: mobility shift assay
T8 construct: purchased Carna Biosciences

[9] = target: T9, PDHK2 (Homo sapiens, UniProt Q15119); experiment: mobility shift assay
T9 construct: purchased Carna Biosciences

[10] = target: T10, BLK (Homo sapiens, UniProt P51451); experiment: mobility shift assay
T10 construct: purchased Carna Biosciences
T10 sequence (P51451 whole entry): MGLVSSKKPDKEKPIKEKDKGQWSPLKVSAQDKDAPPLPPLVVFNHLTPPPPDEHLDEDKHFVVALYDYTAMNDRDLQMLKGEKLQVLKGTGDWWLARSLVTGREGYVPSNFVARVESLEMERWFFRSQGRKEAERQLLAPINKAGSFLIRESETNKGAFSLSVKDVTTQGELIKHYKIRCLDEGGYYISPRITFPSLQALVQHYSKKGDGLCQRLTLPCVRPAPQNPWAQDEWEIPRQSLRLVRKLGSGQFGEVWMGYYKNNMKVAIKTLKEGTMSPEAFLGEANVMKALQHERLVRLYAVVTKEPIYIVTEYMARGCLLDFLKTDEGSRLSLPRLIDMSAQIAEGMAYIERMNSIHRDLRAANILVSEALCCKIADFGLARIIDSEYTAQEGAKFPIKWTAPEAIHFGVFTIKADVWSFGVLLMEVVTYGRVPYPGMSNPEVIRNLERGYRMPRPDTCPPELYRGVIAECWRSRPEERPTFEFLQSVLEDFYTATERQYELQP

[11] = target: T11, NEK7 (Homo sapiens, UniProt Q8TDX7); experiment: mobility shift assay
T11 construct: purchased Carna Biosciences
T11 sequence (Q8TDX7 whole entry): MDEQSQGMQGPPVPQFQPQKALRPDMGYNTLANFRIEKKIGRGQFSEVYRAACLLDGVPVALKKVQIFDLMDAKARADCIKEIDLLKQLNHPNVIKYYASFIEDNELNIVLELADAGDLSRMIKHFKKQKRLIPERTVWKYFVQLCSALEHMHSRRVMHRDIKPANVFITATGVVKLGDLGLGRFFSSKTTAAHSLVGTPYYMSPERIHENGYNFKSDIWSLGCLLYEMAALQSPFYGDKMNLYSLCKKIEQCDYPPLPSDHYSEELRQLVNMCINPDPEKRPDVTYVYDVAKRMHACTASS

[12] = target: T12, MOS_Cascade (Homo sapiens, UniProt P00540); experiment: mobility shift assay
T12 construct: purchased Carna Biosciences

[13] = target: T13, FGFR4(V550L) (Homo sapiens, UniProt P22455, V550L); experiment: mobility shift assay
T13 construct: purchased Carna Biosciences
T13 sequence (P22455 22-802 V550L): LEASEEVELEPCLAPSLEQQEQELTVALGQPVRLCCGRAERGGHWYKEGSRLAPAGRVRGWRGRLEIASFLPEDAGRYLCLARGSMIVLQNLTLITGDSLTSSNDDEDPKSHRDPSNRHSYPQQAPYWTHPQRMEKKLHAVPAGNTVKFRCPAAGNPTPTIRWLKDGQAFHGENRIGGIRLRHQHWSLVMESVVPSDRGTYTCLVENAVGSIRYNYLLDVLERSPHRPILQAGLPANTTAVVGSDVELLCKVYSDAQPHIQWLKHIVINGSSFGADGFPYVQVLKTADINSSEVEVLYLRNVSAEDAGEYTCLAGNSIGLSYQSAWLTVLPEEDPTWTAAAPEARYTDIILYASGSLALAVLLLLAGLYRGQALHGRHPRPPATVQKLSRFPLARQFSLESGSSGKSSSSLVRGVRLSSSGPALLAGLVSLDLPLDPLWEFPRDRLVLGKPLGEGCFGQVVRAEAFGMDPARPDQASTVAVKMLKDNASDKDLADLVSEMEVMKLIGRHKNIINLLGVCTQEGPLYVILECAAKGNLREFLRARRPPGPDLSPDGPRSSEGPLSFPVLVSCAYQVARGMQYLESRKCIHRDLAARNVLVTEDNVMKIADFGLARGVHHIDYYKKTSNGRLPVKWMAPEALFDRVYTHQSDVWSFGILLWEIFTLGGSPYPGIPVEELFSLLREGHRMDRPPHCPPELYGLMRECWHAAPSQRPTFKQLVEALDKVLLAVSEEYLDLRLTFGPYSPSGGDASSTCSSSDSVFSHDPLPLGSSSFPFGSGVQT

[14] = target: T14, CDC7/ASK (Homo sapiens, UniProt O00311); experiment: mobility shift assay
T14 construct: purchased Carna Biosciences

[15] = target: T15, IGF1R (Homo sapiens, UniProt P08069); experiment: mobility shift assay
T15 construct: purchased Carna Biosciences

[16] = target: T16, RON (Homo sapiens, UniProt Q04912); experiment: mobility shift assay
T16 construct: purchased Carna Biosciences

[17] = target: T17, TEC (Homo sapiens, UniProt P42680); experiment: mobility shift assay
T17 construct: purchased Carna Biosciences

[18] = target: T18, ALK(R1275Q) (Homo sapiens, UniProt Q9UM73, R1275Q); experiment: mobility shift assay
T18 construct: purchased Carna Biosciences

[19] = target: T19, GSK3β (Homo sapiens, UniProt P49841); experiment: mobility shift assay
T19 construct: purchased Carna Biosciences

[20] = target: T20, GSK3α (Homo sapiens, UniProt P49840); experiment: mobility shift assay
T20 construct: purchased Carna Biosciences

[21] = target: T21, KIT(D816Y) (Homo sapiens, UniProt P10721, D816Y); experiment: mobility shift assay
T21 construct: purchased Carna Biosciences

[22] = target: T22, PDGFRα(V561D) (Homo sapiens, UniProt P16234, V561D); experiment: mobility shift assay
T22 construct: purchased Carna Biosciences

[23] = target: T23, TNK (Homo sapiens, UniProt Q9UKE5); experiment: mobility shift assay
T23 construct: purchased Carna Biosciences

[24] = target: T24, FGFR3 (Homo sapiens, UniProt P22607); experiment: mobility shift assay
T24 construct: purchased Carna Biosciences

[25] = target: T25, KIT(T670I) (Homo sapiens, UniProt P10721, T670I); experiment: mobility shift assay
T25 construct: purchased Carna Biosciences

[26] = target: T26, EEF2K (Homo sapiens, UniProt O00418); experiment: mobility shift assay
T26 construct: purchased Carna Biosciences

[27] = target: T27, AurA (Homo sapiens, UniProt O14965); experiment: mobility shift assay
T27 construct: purchased Carna Biosciences

[28] = target: T28, FGFR4 (Homo sapiens, UniProt P22455); experiment: mobility shift assay
T28 construct: purchased Carna Biosciences
T28 sequence (P22455 22-802): as the sequence (P22455 22-802 V550L) above, with L529V counted along it

[29] = target: T29, IKKα (Homo sapiens, UniProt O15111); experiment: IMAP Assay
T29 construct: purchased Carna Biosciences
T29 sequence (O15111 whole entry): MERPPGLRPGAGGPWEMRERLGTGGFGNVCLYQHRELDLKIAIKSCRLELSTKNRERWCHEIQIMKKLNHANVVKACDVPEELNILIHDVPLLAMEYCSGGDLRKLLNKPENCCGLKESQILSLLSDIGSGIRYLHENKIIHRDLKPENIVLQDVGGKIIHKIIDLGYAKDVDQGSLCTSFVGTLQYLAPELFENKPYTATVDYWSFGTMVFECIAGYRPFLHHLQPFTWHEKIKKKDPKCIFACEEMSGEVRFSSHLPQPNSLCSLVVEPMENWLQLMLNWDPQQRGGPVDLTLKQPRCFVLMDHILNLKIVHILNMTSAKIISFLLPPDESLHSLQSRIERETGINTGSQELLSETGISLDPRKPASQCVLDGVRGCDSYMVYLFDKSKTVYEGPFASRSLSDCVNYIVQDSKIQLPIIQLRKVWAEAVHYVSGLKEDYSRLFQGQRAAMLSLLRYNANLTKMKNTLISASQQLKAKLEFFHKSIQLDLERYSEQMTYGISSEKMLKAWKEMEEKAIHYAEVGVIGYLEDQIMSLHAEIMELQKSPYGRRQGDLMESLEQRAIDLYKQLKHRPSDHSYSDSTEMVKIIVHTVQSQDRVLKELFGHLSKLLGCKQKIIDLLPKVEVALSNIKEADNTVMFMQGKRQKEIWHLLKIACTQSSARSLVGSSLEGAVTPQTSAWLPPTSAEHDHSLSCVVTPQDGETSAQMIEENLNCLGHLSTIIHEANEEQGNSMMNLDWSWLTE

[30] = target: T30, HCK (Homo sapiens, UniProt P08631); experiment: mobility shift assay
T30 construct: purchased Carna Biosciences

[31] = target: T31, PAK5 (Homo sapiens, UniProt Q9P286); experiment: mobility shift assay
T31 construct: purchased Carna Biosciences

[32] = target: T32, AurB (Homo sapiens, UniProt Q96GD4); experiment: mobility shift assay
T32 construct: purchased Carna Biosciences

[33] = target: T33, HGK (Homo sapiens, UniProt O95819); experiment: mobility shift assay
T33 construct: purchased Carna Biosciences

[34] = target: T34, CaMK2α (Homo sapiens, UniProt Q9UQM7); experiment: mobility shift assay
T34 construct: purchased Carna Biosciences

[35] = target: T35, EPHA5 (Homo sapiens, UniProt P54756); experiment: mobility shift assay
T35 construct: purchased Carna Biosciences
T35 sequence (P54756 25-1037): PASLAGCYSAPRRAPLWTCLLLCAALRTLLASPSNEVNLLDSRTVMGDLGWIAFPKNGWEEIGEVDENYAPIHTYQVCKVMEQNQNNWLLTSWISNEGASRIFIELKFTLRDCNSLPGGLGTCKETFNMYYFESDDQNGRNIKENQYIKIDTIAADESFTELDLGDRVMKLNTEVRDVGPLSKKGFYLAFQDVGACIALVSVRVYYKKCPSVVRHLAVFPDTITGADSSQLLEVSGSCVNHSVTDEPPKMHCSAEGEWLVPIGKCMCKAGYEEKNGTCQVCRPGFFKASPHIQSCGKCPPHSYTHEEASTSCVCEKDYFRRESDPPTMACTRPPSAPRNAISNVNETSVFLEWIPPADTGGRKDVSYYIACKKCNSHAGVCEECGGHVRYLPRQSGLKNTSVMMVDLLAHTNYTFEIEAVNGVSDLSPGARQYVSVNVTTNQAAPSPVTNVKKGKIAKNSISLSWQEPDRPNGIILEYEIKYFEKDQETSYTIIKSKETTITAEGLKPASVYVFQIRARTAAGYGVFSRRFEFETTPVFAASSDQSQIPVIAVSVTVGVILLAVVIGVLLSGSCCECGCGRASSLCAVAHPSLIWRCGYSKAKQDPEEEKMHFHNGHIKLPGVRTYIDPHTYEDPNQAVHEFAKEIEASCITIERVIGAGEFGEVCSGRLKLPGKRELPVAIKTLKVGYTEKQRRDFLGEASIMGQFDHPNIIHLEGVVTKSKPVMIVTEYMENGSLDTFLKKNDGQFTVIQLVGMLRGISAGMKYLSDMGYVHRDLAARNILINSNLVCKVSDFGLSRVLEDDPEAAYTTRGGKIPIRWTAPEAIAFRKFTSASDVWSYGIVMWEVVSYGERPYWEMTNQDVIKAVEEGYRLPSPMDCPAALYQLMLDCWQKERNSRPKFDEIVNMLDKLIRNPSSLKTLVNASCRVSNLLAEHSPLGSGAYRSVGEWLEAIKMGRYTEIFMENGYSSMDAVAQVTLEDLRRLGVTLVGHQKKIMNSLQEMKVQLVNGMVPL

[36] = target: T36, EGFR (Homo sapiens, UniProt P00533); experiment: mobility shift assay
T36 construct: purchased Carna Biosciences

[37] = target: T37, DYRK1A (Homo sapiens, UniProt Q13627); experiment: mobility shift assay
T37 construct: purchased Carna Biosciences

[38] = target: T38, ALK (Homo sapiens, UniProt Q9UM73); experiment: mobility shift assay
T38 construct: purchased Carna Biosciences

[39] = target: T39, TSSK1 (Homo sapiens, UniProt Q9BXA7); experiment: mobility shift assay
T39 construct: purchased Carna Biosciences

[40] = target: T40, Erk1 (Homo sapiens, UniProt P27361); experiment: mobility shift assay
T40 construct: purchased Carna Biosciences

[41] = target: T41, MLK1_Cascade (Homo sapiens, UniProt P80192); experiment: mobility shift assay
T41 construct: purchased Carna Biosciences

[42] = target: T42, BRSK1 (Homo sapiens, UniProt Q8TDC3); experiment: mobility shift assay
T42 construct: purchased Carna Biosciences

SMILES: C[C@@H]1CC[C@H]2C(C)(C)CCC[C@]2(C)c2c1oc1c(C=O)c(O)c(O)cc21 [LG-1, liphagal]
- inhibition at 10 µM [1]: 17.4%
- inhibition at 10 µM [2]: -15.3%
- inhibition at 10 µM [3]: 26.1%
- inhibition at 10 µM [4]: -10.8%
- inhibition at 10 µM [5]: -0.5%
- inhibition at 10 µM [6]: 31.3%
- inhibition at 10 µM [7]: 15%
- inhibition at 10 µM [8]: 1.7%
- inhibition at 10 µM [9]: 47.2%
- inhibition at 10 µM [10]: 29.4%
- inhibition at 10 µM [11]: 24.4%
- inhibition at 10 µM [12]: 29.5%
- inhibition at 10 µM [13]: 7.8%
- inhibition at 10 µM [14]: 26.2%
- inhibition at 10 µM [15]: 8.7%
- inhibition at 10 µM [16]: 7.8%
- inhibition at 10 µM [17]: -1.2%
- inhibition at 10 µM [18]: -0.5%
- inhibition at 10 µM [19]: 25.3%
- inhibition at 10 µM [20]: 23.1%
- inhibition at 10 µM [21]: 6.2%
- inhibition at 10 µM [22]: 7.1%
- inhibition at 10 µM [23]: 0.1%
- inhibition at 10 µM [24]: -4.4%
- inhibition at 10 µM [25]: 5.4%
- inhibition at 10 µM [26]: 22.4%
- inhibition at 10 µM [27]: 53.9%
- inhibition at 10 µM [28]: 7.5%
- inhibition at 10 µM [29]: 34.4%
- inhibition at 10 µM [30]: 4.8%
- inhibition at 10 µM [31]: -2.5%
- inhibition at 10 µM [32]: 12.1%
- inhibition at 10 µM [33]: 1.2%
- inhibition at 10 µM [34]: -0.5%
- inhibition at 10 µM [35]: 2.3%
- inhibition at 10 µM [36]: -4.4%
- inhibition at 10 µM [37]: 10.5%
- inhibition at 10 µM [38]: 9%
- inhibition at 10 µM [39]: 4.1%
- inhibition at 10 µM [40]: -4.4%
- inhibition at 10 µM [41]: 16.3%
- inhibition at 10 µM [42]: 9.2%
